Patent publication US10548912B2, “Dosage regimen for a tiacumicin compound” (Astellas Pharma Europe Ltd., priority 2015, dated 2020)
Where two headings read alike, the source gives them in different places.

How the values were obtained:
[1] = test system: Clostridium difficile infection; experiment: Phase IIIb/IV randomized open-label EXTEND study (2819-MA-1002): extended fidaxomicin vs standard vancomycin; assay type: in vivo, human
Description: Fidaxomicin (FDX) is believed to reduce recurrence primarily through minimal collateral damage to colonic microflora. […] Subjects will receive 200 mg twice daily (b.i.d.) for 5 days from Day 1 to Day 5. From Day 6 to Day 25, subjects will receive 200 mg once daily on alternate days (first alternate day dose given on Day 7). This extension of the dose will allow a longer period for the protective microflora to recover and extend the period of time over which Clostridium difficile cells are suppressed, and kill any dormant spores that germinate. The extension of the dose also targets the early recurrence period documented in the phase 3 studies—the first 15 days after the end of therapy during which the majority of recurrences occurred. By covering this period this revised dosing regimen may reduce the recurrence to <10%, preferably to <5% and even more preferred to <3%. The impact on the gut microflora was limited supporting the rationale for this study.
The dosing of vancomycin (Vancocin™) to be administered in this study is in line with the SmPC for Vancocin. Subjects will receive 125 mg four times daily (q.i.d.) for 10 days from Day 1 to Day 10.
The dosage regimen was as described in Table 1 of Example 1.

[2] = in vitro BCS study; low solubility, low permeability; cited from earlier work
[3] = test system: CDI; experiment: Individual patient data for extended fidaxomicin treatment regimen; assay type: in vivo, human
From the text: Individual Patient Data for Extended Fidaxomicin Treatment Regimen

[4] = test system: CDI; conditions: Phase III studies, mITT analysis; cited from earlier work
[5] = oral administration; cited from earlier work
[6] = test system: Clostridium difficile infections (CDI); conditions: cited from earlier work
[7] = Day 55, extended fidaxomicin or standard vancomycin
[8] = Table 7, extended fidaxomicin regimen of Example 1 or standard vancomycin
[9] = extended fidaxomicin Day 55, standard vancomycin Day 40
[10] = FID-CH: 10-day fidaxomicin chaser after repeat CDI treatment, 8 courses, excluding RCDI due to antimicrobial exposure
[11] = FID-TX: 200 mg BID for 10 days, of 3 courses

## CCc1c(Cl)c(O)c(Cl)c(O)c1C(=O)O[C@H]1[C@H](O)[C@H](OC)[C@H](OC/C2=C\C=C\C[C@H](O)/C(C)=C/[C@H](CC)[C@@H](O[C@@H]3OC(C)(C)[C@@H](OC(=O)C(C)C)[C@H](O)[C@@H]3O)/C(C)=C/C(C)=C/C[C@@H]([C@@H](C)O)OC2=O)O[C@@H]1C [fidaxomicin, 3-[[[6-deoxy-4-O-(3,5-dichloro-2-ethyl-4,6-dihydroxybenzoyl)-2-O-methyl-β-D-mannopyranosyl]oxy]methyl]-12(R)-[[6-deoxy-5-C-methyl-4-O-(2-methyl-1-oxopropyl)-β-D-lyxo-hexopyranosyl]oxy]-11 (S)-ethyl-8(S)-hydroxy-18(S)-(1(R)-hydroxyethyl)-9,13,15-trimethyloxacyclooctadeca-3,5,9,13,15-pentaene-2-one]
[1]; 30 days after end of treatment
  Treatment Difference in sustained clinical cure rate (Extended Fidaxomicin − Standard Vancomycin): 23.8%
[1]; 30 days after end of treatment, extended fidaxomicin
  OR (Odds Ratio) vs. Vancomycin, sustained clinical cure: 3.36
[1]; Day 1
  % of patients with <3 Unformed bowel movements per day (UBM): 23%
  % of patients with ≥3 Unformed bowel movements per day (UBM): 77.0%
[1]; Day 2
  % of patients with <3 Unformed bowel movements per day (UBM): 33.8%
  % of patients with ≥3 Unformed bowel movements per day (UBM): 66.2%
[1]; Day 3
  % of patients with <3 Unformed bowel movements per day (UBM): 59%
  % of patients with ≥3 Unformed bowel movements per day (UBM): 41%
[1]; Day 4
  % of patients with <3 Unformed bowel movements per day (UBM): 66.9%
  % of patients with ≥3 Unformed bowel movements per day (UBM): 33.1%
[1]; Day 5
  % of patients with <3 Unformed bowel movements per day (UBM): 73.9%
  % of patients with ≥3 Unformed bowel movements per day (UBM): 26.1%
[1]; Day 6
  % of patients with <3 Unformed bowel movements per day (UBM): 73.9%
  % of patients with ≥3 Unformed bowel movements per day (UBM): 26.1%
[1]; Day 7
  % of patients with <3 Unformed bowel movements per day (UBM): 84.8%
  % of patients with ≥3 Unformed bowel movements per day (UBM): 15.2%
[1]; Day 8
  % of patients with <3 Unformed bowel movements per day (UBM): 89.1%
  % of patients with ≥3 Unformed bowel movements per day (UBM): 10.9%
[1]; Day 9
  % of patients with <3 Unformed bowel movements per day (UBM): 91.3%
  % of patients with ≥3 Unformed bowel movements per day (UBM): 8.7%
[1]; Day 10
  % of patients with <3 Unformed bowel movements per day (UBM): 92.6%
  % of patients with ≥3 Unformed bowel movements per day (UBM): 7.4%
[1]; Day 11
  % of patients with <3 Unformed bowel movements per day (UBM): 93.3%
  % of patients with ≥3 Unformed bowel movements per day (UBM): 6.7%
[1]; Day 12
  % of patients with <3 Unformed bowel movements per day (UBM): 94.8%
  % of patients with ≥3 Unformed bowel movements per day (UBM): 5.2%
[1]; Day 13
  % of patients with <3 Unformed bowel movements per day (UBM): 93.3%
  % of patients with ≥3 Unformed bowel movements per day (UBM): 6.7%
[1]; Day 14
  % of patients with <3 Unformed bowel movements per day (UBM): 95.6%
  % of patients with ≥3 Unformed bowel movements per day (UBM): 4.4%
[1]; Day 15
  % of patients with <3 Unformed bowel movements per day (UBM): 94.8%
  % of patients with ≥3 Unformed bowel movements per day (UBM): 5.2%
[1]; Day 16
  % of patients with <3 Unformed bowel movements per day (UBM): 95.5%
  % of patients with ≥3 Unformed bowel movements per day (UBM): 4.5%
[1]; Day 17
  % of patients with <3 Unformed bowel movements per day (UBM): 95.5%
  % of patients with ≥3 Unformed bowel movements per day (UBM): 4.5%
[1]; Day 18
  % of patients with <3 Unformed bowel movements per day (UBM): 94.0%
  % of patients with ≥3 Unformed bowel movements per day (UBM): 6.0%
[1]; Day 19
  % of patients with <3 Unformed bowel movements per day (UBM): 95.5%
  % of patients with ≥3 Unformed bowel movements per day (UBM): 4.5%
[1]; Day 20
  % of patients with <3 Unformed bowel movements per day (UBM): 97.8%
  % of patients with ≥3 Unformed bowel movements per day (UBM): 2.2%
[1]; Day 21
  % of patients with <3 Unformed bowel movements per day (UBM): 95.5%
  % of patients with ≥3 Unformed bowel movements per day (UBM): 4.5%
[1]; Day 22
  % of patients with <3 Unformed bowel movements per day (UBM): 96.3%
  % of patients with ≥3 Unformed bowel movements per day (UBM): 3.7%
[1]; Day 23
  % of patients with <3 Unformed bowel movements per day (UBM): 95.5%
  % of patients with ≥3 Unformed bowel movements per day (UBM): 4.5%
[1]; Day 24
  % of patients with <3 Unformed bowel movements per day (UBM): 96.2%
  % of patients with ≥3 Unformed bowel movements per day (UBM): 3.8%
[1]; Day 25
  % of patients with <3 Unformed bowel movements per day (UBM): 96.2%
  % of patients with ≥3 Unformed bowel movements per day (UBM): 3.8%
[1]; Day 26
  % of patients with <3 Unformed bowel movements per day (UBM): 97.3%
  % of patients with ≥3 Unformed bowel movements per day (UBM): 2.7%
[1]; Day 27
  % of patients with <3 Unformed bowel movements per day (UBM): 98.5%
  % of patients with ≥3 Unformed bowel movements per day (UBM): 1.5%
[1]; Day 55
  Treatment Difference in recurrence rate (Extended fidaxomicin − Standard vancomycin): −12.6%
[1]; Day 55, extended fidaxomicin
  OR (Odds Ratio) vs. Vancomycin, recurrence of CDI: 0.21
[1]; [7]
  Recurrence of CDI (%) at visit 5 (Day 55): (3.5) %
  Recurrence of CDI at visit 5 (Day 55) (patients/N): 5/142
[1]; Day 55, extended fidaxomicin or standard vancomycin, listed as FDX
  Recurrence of CDI (%) at visit 5 (Day 55): 3.5%
[1]; [8]
  Recurrence 30 days after end of treatment (%): 3.5%
  Recurrence 30 days after end of treatment (patients/N): 5/142
[1]; [9]
  Sustained clinical cure (%) at 30 days after end of treatment: (86.7) %
  Sustained clinical cure at 30 days after end of treatment (patients/N): 124/143
[1]; extended fidaxomicin Day 55, standard vancomycin Day 40, listed as FDX
  Sustained clinical cure (%) at 30 days after end of treatment: 86.7%
[2]
  BCS class: Class IV
[3]; Patient 1 (ID: 3000510001), Day 1
  Number of Unformed bowel movements per day: 4
[3]; Patient 1 (ID: 3000510001), Day 2
  Number of Unformed bowel movements per day: 2
[3]; Patient 1 (ID: 3000510001), Day 3
  Number of Unformed bowel movements per day: 1
[3]; Patient 1 (ID: 3000510001), Day 4
  Number of Unformed bowel movements per day: 0
[3]; Patient 1 (ID: 3000510001), Day 5
  Number of Unformed bowel movements per day: 0
[3]; Patient 1 (ID: 3000510001), Day 6
  Number of Unformed bowel movements per day: 2
[3]; Patient 1 (ID: 3000510001), Day 7
  Number of Unformed bowel movements per day: 0
[3]; Patient 1 (ID: 3000510001), Day 8
  Number of Unformed bowel movements per day: 0
[3]; Patient 1 (ID: 3000510001), Day 9
  Number of Unformed bowel movements per day: 0
[3]; Patient 1 (ID: 3000510001), Day 10
  Number of Unformed bowel movements per day: 0
[3]; Patient 2 (ID: 3000710001), Day 1
  Number of Unformed bowel movements per day: 7
[3]; Patient 2 (ID: 3000710001), Day 2
  Number of Unformed bowel movements per day: 7
[3]; Patient 2 (ID: 3000710001), Day 3
  Number of Unformed bowel movements per day: 2
[3]; Patient 2 (ID: 3000710001), Day 4
  Number of Unformed bowel movements per day: 1
[3]; Patient 2 (ID: 3000710001), Day 5
  Number of Unformed bowel movements per day: 1
[3]; Patient 2 (ID: 3000710001), Day 6
  Number of Unformed bowel movements per day: 2
[3]; Patient 2 (ID: 3000710001), Day 7
  Number of Unformed bowel movements per day: 1
[3]; Patient 2 (ID: 3000710001), Day 8
  Number of Unformed bowel movements per day: 1
[3]; Patient 2 (ID: 3000710001), Day 9
  Number of Unformed bowel movements per day: 1
[3]; Patient 2 (ID: 3000710001), Day 10
  Number of Unformed bowel movements per day: 0
[3]; Patient 3 (ID: 3400310001), Day 1
  Number of Unformed bowel movements per day: 8
[3]; Patient 3 (ID: 3400310001), Day 2
  Number of Unformed bowel movements per day: 0
[3]; Patient 3 (ID: 3400310001), Day 3
  Number of Unformed bowel movements per day: 0
[3]; Patient 3 (ID: 3400310001), Day 4
  Number of Unformed bowel movements per day: 0
[3]; Patient 3 (ID: 3400310001), Day 5
  Number of Unformed bowel movements per day: 0
[3]; Patient 3 (ID: 3400310001), Day 6
  Number of Unformed bowel movements per day: 0
[3]; Patient 3 (ID: 3400310001), Day 7
  Number of Unformed bowel movements per day: 0
[3]; Patient 3 (ID: 3400310001), Day 8
  Number of Unformed bowel movements per day: 0
[3]; Patient 3 (ID: 3400310001), Day 9
  Number of Unformed bowel movements per day: 0
[3]; Patient 3 (ID: 3400310001), Day 10
  Number of Unformed bowel movements per day: 0
[3]; Patient 4 (ID: 3580210001), Day 1
  Number of Unformed bowel movements per day: 9
[3]; Patient 4 (ID: 3580210001), Day 2
  Number of Unformed bowel movements per day: 9
[3]; Patient 4 (ID: 3580210001), Day 3
  Number of Unformed bowel movements per day: 5
[3]; Patient 4 (ID: 3580210001), Day 4
  Number of Unformed bowel movements per day: 3
[3]; Patient 4 (ID: 3580210001), Day 5
  Number of Unformed bowel movements per day: 2
[3]; Patient 4 (ID: 3580210001), Day 6
  Number of Unformed bowel movements per day: 3
[3]; Patient 4 (ID: 3580210001), Day 7
  Number of Unformed bowel movements per day: 3
[3]; Patient 4 (ID: 3580210001), Day 8
  Number of Unformed bowel movements per day: 1
[3]; Patient 4 (ID: 3580210001), Day 9
  Number of Unformed bowel movements per day: 1
[3]; Patient 4 (ID: 3580210001), Day 10
  Number of Unformed bowel movements per day: 2
[4]
  Recurrence of CDI: 14.1%
[5]
  Absorption from the intestinal tract: poorly absorbed
[6]; 18 courses of fidaxomicin in 14 patients with RCDI
  Courses resulting in treatment success: 18
[6]; [10]
  RCDI: 2
  RCDI (%): 25%
[6]; FID-TP: taper 200 mg daily 7 days then 200 mg QOD 7-26 days, 7 courses
  RCDI: no RCDI
[6]; [11]
  RCDI episodes: 2
  RCDI episodes (%): 66%
[6]; following FID-CH
  Average symptom-free interval (SFI): 240 days
[6]; following FID-TP
  Average symptom-free interval (SFI): 150 days
[6]; following FID-TX
  Average symptom-free interval (SFI): 73 days
